Experimental data reported in patent US10689377B2 (Mirati Therapeutics, Inc., priority 2017, dated 2020).
Counter-ions that a name gives are not always drawn.

These compounds were tested against KRas G12C (Homo sapiens, UniProt P01116, G12C) (assay: Cellular inhibition of KRas G12C measured by Phospho-ERK in NCI-H358 cells). Conditions: pERK(Thr202/Tyr204) normalized with GAPDH, NCI-H358 cells, 3 hours; read-out: IC50.
Sequence of KRas G12C (P01116 1-188 isoform P01116-2 G12C): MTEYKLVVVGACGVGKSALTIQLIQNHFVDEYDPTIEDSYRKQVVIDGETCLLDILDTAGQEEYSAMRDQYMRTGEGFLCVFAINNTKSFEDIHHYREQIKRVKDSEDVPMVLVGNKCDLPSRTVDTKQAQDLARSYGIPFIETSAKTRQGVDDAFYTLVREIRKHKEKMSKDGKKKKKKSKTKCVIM
Assay type: cell-based
Method: Cells were plated in poly-D-Lysine coated 96-well plates at a concentration of 50,000 cells/well and allowed to attach for 8-12 hours. Diluted compounds were then added at a final concentration of 0.5% DMSO. After 3 hours, the medium was removed, 150 μL of 4% formaldehyde was added and the plates were incubated for 20 minutes. The plates were washed with PBS, and permeabilized using 150 μL of ice cold 100% methanol for 10 minutes. Non-specific antibody binding to the plates was blocked using 100 μL Licor Blocking Buffer (Li-Cor Biotechnology, Lincoln Nebr.) for 1 hour at room temperature. Positive control samples and samples lacking cells were parallel processed with test samples as standards.
The amount Phospho-ERK was determined using an antibody specific for the phosphorylated form of ERK and compared to the amount of GAPDH. […] The plates were incubated for 2 hours at room temperature. The plates were washed with PBS+0.05% Tween 20.
Secondary antibodies used to visualize primary antibodies were added as follows: Anti-rabbit-680 diluted 1:1000 and Anti-mouse-800 diluted 1:1000 in Licor Block+0.05% Tween 20 and incubated for 1 hour at room temperature. The plates were washed with PBS+0.05% Tween 20. A 100 μL aliquot of PBS was added to each well and the plates were read on a LICOR AERIUS plate reader.
The pERK(Thr202/Tyr204) signal was normalized with the GAPDH signal and percent of DMSO control values were calculated. IC50 values were generated using a 4 parameter fit of the dose response curve. Key: “A”≥0.0001-≤1 μM; “B”>1 μM and ND=not determined.
For `C=CC(=O)N1CCN(c2nc(N3CCN(C)CC3)nc3c2CCN(c2cc(O)cc4ccccc24)C3)CC1` [Example 12, 1-(4-(7-(3-hydroxynaphthalen-1-yl)-2-(4-methylpiperazin-1-yl)-5,6,7,8-tetrahydropyrido[3,4-d]pyrimidin-4-yl)piperazin-1-yl)prop-2-en-1-one], the IC50 was greater than 1000 nM. Compound `C=CC(=O)N1CCN(c2nc(N3CCC(N(C)C)C3)nc3c2CCN(c2cc(O)cc4ccccc24)C3)CC1` (stereo not shown) [Example 13, 1-(4-(2-(3-(dimethylamino)pyrrolidin-1-yl)-7-(3-hydroxynaphthalen-1-yl)-5,6,7,8-tetrahydropyrido[3,4-d]pyrimidin-4-yl)piperazin-1-yl)prop-2-en-1-one] has an IC50 greater than 1000 nM. `C=CC(=O)N1CCN(c2nc(OCCN(C)C)nc3c2CCN(c2cc(O)cc4ccccc24)C3)C[C@@H]1C` [Example 14] showed an IC50 greater than 1000 nM. Work on `C=CC(=O)N1CCN(c2nc(OCCN(C)C)nc3c2CCN(c2cc(O)cc4ccccc24)C3)C[C@H]1C` [Example 15, (R)-1-(4-(2-(2-(dimethylamino)ethoxy)-7-(3-hydroxynaphthalen-1-yl)-5,6,7,8-tetrahydropyrido[3,4-d]pyrimidin-4-yl)-2-methylpiperazin-1-yl)prop-2-en-1-one] yielded an IC50 greater than 1000 nM. With `C=CC(=O)N1CC2(C1)CN(c1nc(OCCN(C)C)nc3c1CCN(c1cc(O)cc4ccccc14)C3)C2` [Example 16, 1-(6-(2-(2-(dimethylamino)ethoxy)-7-(3-hydroxynaphthalen-1-yl)-5,6,7,8-tetrahydropyrido[3,4-d]pyrimidin-4-yl)-2,6-diazaspiro[3.3]heptan-2-yl)prop-2-en-1-one] the IC50 was greater than 1000 nM. Compound `C=CC(=O)N1CCN(c2nc(N3CCC(N(C)C)CC3)nc3c2CCN(c2cc(O)cc4ccccc24)C3)CC1` [Example 17, 1-(4-(2-(4-(dimethylamino)piperidin-1-yl)-7-(3-hydroxynaphthalen-1-yl)-5,6,7,8-tetrahydropyrido[3,4-d]pyrimidin-4-yl)piperazin-1-yl)prop-2-en-1-one] has an IC50 greater than 1000 nM. `C=CC(=O)N1CC2(C1)CN(c1nc(OC(C)CN(C)C)nc3c1CCN(c1cc(O)cc4ccccc14)C3)C2` (stereo not shown) [Example 18, 1-(6-(2-((1-(dimethylamino)propan-2-yl)oxy)-7-(3-hydroxynaphthalen-1-yl)-5,6,7,8-tetrahydropyrido[3,4-d]pyrimidin-4-yl)-2,6-diazaspiro[3.3]heptan-2-yl)prop-2-en-1-one] was tested, and the IC50 was greater than 1000 nM. With `C=CC(=O)N1CCN(c2nc(O[C@H](C)CN(C)C)nc3c2CCN(c2cc(O)cc4ccccc24)C3)CC1` [Example 19, (R)-1-(4-(2-((1-(dimethylamino)propan-2-yl)oxy)-7-(3-hydroxynaphthalen-1-yl)-5,6,7,8-tetrahydropyrido[3,4-d]pyrimidin-4-yl)piperazin-1-yl)prop-2-en-1-one] the IC50 was 0.1 to 1000 nM. `C=CC(=O)N1CC2(C1)CN(c1nc(OCCCN(C)C)nc3c1CCN(c1cc(O)cc4ccccc14)C3)C2` [Example 20, 1-(6-(2-(3-(dimethylamino)propoxy)-7-(3-hydroxynaphthalen-1-yl)-5,6,7,8-tetrahydropyrido[3,4-d]pyrimidin-4-yl)-2,6-diazaspiro[3.3]heptan-2-yl)prop-2-en-1-one] showed an IC50 greater than 1000 nM. In the case of `C=CC(=O)N1CCN(c2nc(OC(C)CCN(C)C)nc3c2CCN(c2cc(O)cc4ccccc24)C3)CC1` (stereo not shown) [Example 21, 1-(4-(2-((4-(dimethylamino)butan-2-yl)oxy)-7-(3-hydroxynaphthalen-1-yl)-5,6,7,8-tetrahydropyrido[3,4-d]pyrimidin-4-yl)piperazin-1-yl)prop-2-en-1-one], the IC50 is reported as 0.1 to 1000 nM. Compound `C=CC(=O)N1CCN(c2nc(OC3CCN(C)CC3)nc3c2CCN(c2cc(O)cc4ccccc24)C3)CC1` [Example 22, 1-(4-(7-(3-hydroxynaphthalen-1-yl)-2-((1-methylpiperidin-4-yl)oxy)-5,6,7,8-tetrahydropyrido[3,4-d]pyrimidin-4-yl)piperazin-1-yl)prop-2-en-1-one] has an IC50 greater than 1000 nM. Compound `C=CC(=O)N1CCN(c2nc(OC3CCN(C)C3)nc3c2CCN(c2cc(O)cc4ccccc24)C3)CC1` (stereo not shown) [Example 23, 1-(4-(7-(3-hydroxynaphthalen-1-yl)-2-((1-methylpyrrolidin-3-yl)oxy)-5,6,7,8-tetrahydropyrido[3,4-d]pyrimidin-4-yl)piperazin-1-yl)prop-2-en-1-one] has an IC50 greater than 1000 nM. `C=CC(=O)N1CCN(c2nc(OC(C)CN(C)C)nc3c2CCN(c2cccc4ccccc24)C3)CC1` (stereo not shown) [Example 24, 1-(4-(2-((1-(dimethylamino)propan-2-yl)oxy)-7-(naphthalen-1-yl)-5,6,7,8-tetrahydropyrido[3,4-d]pyrimidin-4-yl)piperazin-1-yl)prop-2-en-1-one] showed an IC50 greater than 1000 nM. With `C=CC(=O)N1CCN(c2nc(OCCCN(C)C)nc3c2CCN(C(C)c2ccccc2)C3)CC1` (stereo not shown) [Example 25, 1-(4-(2-(3-(dimethylamino)propoxy)-7-(1-phenylethyl)-5,6,7,8-tetrahydropyrido[3,4-d]pyrimidin-4-yl)piperazin-1-yl)prop-2-en-1-one] the IC50 was greater than 1000 nM. Work on `C=CC(=O)N1CCN(c2nc(N3CCN(CCO)CC3)nc3c2CCN(c2cc(O)cc4ccccc24)C3)CC1` [Example 26, 1-(4-(2-(4-(2-hydroxyethyl)piperazin-1-yl)-7-(3-hydroxynaphthalen-1-yl)-5,6,7,8-tetrahydropyrido[3,4-d]pyrimidin-4-yl)piperazin-1-yl)prop-2-en-1-one] yielded an IC50 greater than 1000 nM. In the case of `C=CC(=O)N1CCN(c2nc(OCCN3CCS(=O)(=O)CC3)nc3c2CCN(c2cc(O)cc4ccccc24)C3)CC1` [Example 33, 1-(4-(2-(2-(1,1-dioxidothiomorpholino)ethoxy)-7-(3-hydroxynaphthalen-1-yl)-5,6,7,8-tetrahydropyrido[3,4-d]pyrimidin-4-yl)piperazin-1-yl)prop-2-en-1-one trifluoroacetate], the IC50 is reported as greater than 1000 nM. For `C=CC(=O)N1CCN(c2nc(OCCCN3CCS(=O)(=O)CC3)nc3c2CCN(c2cc(O)cc4ccccc24)C3)CC1` [Example 34, 1-(4-(2-(3-(1,1-dioxidothiomorpholino)propoxy)-7-(3-hydroxynaphthalen-1-yl)-5,6,7,8-tetrahydropyrido[3,4-d]pyrimidin-4-yl)piperazin-1-yl)prop-2-en-1-one trifluoroacetate], the IC50 was greater than 1000 nM. Compound `C=CC(=O)N1CCN(c2nc(OCCCCN3CCOCC3)nc3c2CCN(c2cc(O)cc4ccccc24)C3)CC1` [Example 35, 1-(4-(7-(3-hydroxynaphthalen-1-yl)-2-(4-morpholinobutoxy)-5,6,7,8-tetrahydropyrido[3,4-d]pyrimidin-4-yl)piperazin-1-yl)prop-2-en-1-one trifluoroacetate] has an IC50 greater than 1000 nM. `C=CC(=O)N1CCN(c2nc(O[C@H](C)CN3CCN(C(C)=O)CC3)nc3c2CCN(c2cc(O)cc4ccccc24)C3)CC1` [Example 36, (R)-1-(4-(2-((1-(4-acetylpiperazin-1-yl)propan-2-yl)oxy)-7-(3-hydroxynaphthalen-1-yl)-5,6,7,8-tetrahydropyrido[3,4-d]pyrimidin-4-yl)piperazin-1-yl)prop-2-en-1-one] was tested, and the IC50 was greater than 1000 nM. `C=CC(=O)N1CCN(c2nc(OCCN3CCN(C(C)=O)CC3)nc3c2CCN(c2cc(O)cc4ccccc24)C3)CC1` [Example 37, 1-(4-(2-(2-(4-acetylpiperazin-1-yl)ethoxy)-7-(3-hydroxynaphthalen-1-yl)-5,6,7,8-tetrahydropyrido[3,4-d]pyrimidin-4-yl)piperazin-1-yl)prop-2-en-1-one] showed an IC50 greater than 1000 nM. With `C=CC(=O)N1CCN(c2nc(OCCCN3CCCCC3)nc3c2CCN(c2cc(O)cc4ccccc24)C3)CC1` [Example 38, 1-(4-(7-(3-hydroxynaphthalen-1-yl)-2-(3-(piperidin-1-yl)propoxy)-5,6,7,8-tetrahydropyrido[3,4-d]pyrimidin-4-yl)piperazin-1-yl)prop-2-en-1-one] the IC50 was 0.1 to 1000 nM. `C=CC(=O)N1CCN(c2nc(OCCCN3CCCC3)nc3c2CCN(c2cc(O)cc4ccccc24)C3)CC1` [Example 39, 1-(4-(7-(3-hydroxynaphthalen-1-yl)-2-(3-(pyrrolidin-1-yl)propoxy)-5,6,7,8-tetrahydropyrido[3,4-d]pyrimidin-4-yl)piperazin-1-yl)prop-2-en-1-one] showed an IC50 of 0.1 to 1000 nM. In the case of `C=CC(=O)N1CCN(c2nc(OCCCCN(C)C)nc3c2CCN(c2cc(O)cc4ccccc24)C3)CC1` [Example 40, 1-(4-(2-(4-(dimethylamino)butoxy)-7-(3-hydroxynaphthalen-1-yl)-5,6,7,8-tetrahydropyrido[3,4-d]pyrimidin-4-yl)piperazin-1-yl)prop-2-en-1-one], the IC50 is reported as 0.1 to 1000 nM. `C=CC(=O)N1CCN(c2nc(OCCCN3CCOCC3)nc3c2CCN(c2cc(O)cc(C4CC4)c2)C3)CC1` [Example 41, 1-(4-(7-(3-cyclopropyl-5-hydroxyphenyl)-2-(3-morpholinopropoxy)-5,6,7,8-tetrahydropyrido[3,4-d]pyrimidin-4-yl)piperazin-1-yl)prop-2-en-1-one trifluoroacetate] showed an IC50 greater than 1000 nM. In the case of `C=CC(=O)N1CCN(c2nc(OCCCN3CCOCC3)nc3c2CCN(c2cc(O)ccc2F)C3)CC1` [Example 42, 1-(4-(7-(2-fluoro-5-hydroxyphenyl)-2-(3-morpholinopropoxy)-5,6,7,8-tetrahydropyrido[3,4-d]pyrimidin-4-yl)piperazin-1-yl)prop-2-en-1-one], the IC50 is reported as greater than 1000 nM.
